Reference: PMC8348983 (International Journal of Molecular Sciences, 2021)

How the values were obtained:
[1] = target: POP (prolyloligopeptidase) (Homo sapiens, UniProt P48147); assay: POP inhibition assay; assay type: biochemical; settings: bounds marked f: highest tested concentration due to low solubility in buffer; read-out: IC50, POP ± SEM
Procedure: The previously applied procedure was used. Detailed description of the assay can be found in Supplementary Materials.
POP (EC 3.4.21.26) was dissolved in phosphate-buffered saline (PBS; 0.01 M Na/K phosphate buffer, […]
The assay was performed in standard polystyrene 96-well microplates with a flat and clear bottom.
Stock solutions of tested compounds were prepared in DMSO (10 mM). Dilutions (10−3 to 10−7 M) were prepared from the stock solution with deionized H2O; the control was performed with the same DMSO concentration. POP substrate, (Z)-Gly-Pro-p-nitroanilide, was dissolved in 50% 1,4-dioxane (5 mM). For each reaction, PBS (170 μL), tested compound (5 μL), and POP (5 μL) were incubated for 5 min at 37 °C. Then, substrate (20 μL) was added, and the microplate was incubated for 30 min at 37 °C. The formation of p-nitroanilide, directly proportional to the POP activity, was measured […]
Synergy 2, BioTek Instruments, Winooski, VT). The inhibition potency of tested compounds was calculated by nonlinear regression analysis and was expressed as an IC50 value (concentration of inhibitor which causes 50% POP inhibition). […]

Cytotoxicity, MTT assay = assay type: cell-based; settings: human, SH-SY5Y neuroblastoma cells, 24 h incubation
Procedure: The cytotoxicity profile was assessed for compound 6 using the human neuroblastoma SH-SY5Y cell line and MTT assay. At a concentration of 10 µM, compound 6 was completely devoid of cytotoxicity, with viability reaching 95.1 ± 2.6%.
The neuroblastoma cell line SH-SY5Y (Sigma-Aldrich, St. Louis, MO, USA) was used to evaluate cytotoxicity of the tested compounds. […]
The MTT (3-(4,5-dimethylthiazol-2-yl)-2,5-diphenyl-tetraziolium bromide (Sigma–Aldrich) reduction assay was used for measurement of the compounds’ cytotoxicity, according to Mosmann. MTT is a water-soluble tetrazolium salt that is converted to purple formazan by succinate dehydrogenase in mitochondria of viable cells. Cell viability was detected after 24-h incubation with the tested substances. For the assay, SH-SY5Y cells were seeded into 96-well plates in 100 µL volume and at a density of 20 × 10^3. Cells were allowed to attach overnight before the treatment. The stock solutions of tested compounds were prepared in dimethylsulfoxide (DMSO, Sigma-Aldrich), which were serially diluted in DMEM and added to the cells in a 96-well culture plate. […] The optical density of each well was measured using a Spark® multimode microplate reader (Tecan Group Ltd., Männedorf, Switzerland) at 570 nm. The cell viability was expressed as a percentage of the untreated control. […]

MAO-B = target: T1, MAO-B (Homo sapiens, UniProt P27338); assay: MAO-B inhibition assay; assay type: biochemical
T1 construct: purchased Merck, Germany
T1 sequence (P27338 1-520): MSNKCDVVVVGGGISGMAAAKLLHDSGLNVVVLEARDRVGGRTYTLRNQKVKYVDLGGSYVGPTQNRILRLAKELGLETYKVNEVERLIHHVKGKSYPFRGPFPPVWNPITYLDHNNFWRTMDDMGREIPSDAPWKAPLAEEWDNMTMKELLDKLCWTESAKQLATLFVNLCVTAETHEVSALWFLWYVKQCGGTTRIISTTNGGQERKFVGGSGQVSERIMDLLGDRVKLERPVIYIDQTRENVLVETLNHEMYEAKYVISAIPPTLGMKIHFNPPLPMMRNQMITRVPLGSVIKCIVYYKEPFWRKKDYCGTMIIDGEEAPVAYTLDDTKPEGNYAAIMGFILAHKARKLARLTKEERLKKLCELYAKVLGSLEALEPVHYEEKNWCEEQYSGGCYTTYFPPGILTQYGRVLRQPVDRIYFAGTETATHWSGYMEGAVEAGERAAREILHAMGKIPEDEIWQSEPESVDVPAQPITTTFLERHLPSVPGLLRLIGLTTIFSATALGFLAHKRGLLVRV
Procedure: Since monoamine oxidase (MAO; EC 1.4.3.4) inhibitors are considered as neuroprotective agents, compound 6 was screened at two concentrations (1 and 10 µM) for its inhibition potential against both isoforms of human MAOs. […]; MAO inhibition assay was performed as previously described. Supplementary Materials provides details of this assay. […]
The reaction mixture contains 2.5mg/mL MAO -A or 6.25mg/mLMAO-B enzyme (Merck, Germany) and inhibitor in final concentrations of […] in 50 mM potassiumphosphate buffer with 20% (v/v) glycerol (pH 7.5). […] The sample was then centrifuged (16.500 g) for10 min.The deamination product of kynuramine formed during the enzymatic reaction 4-hydroxyquinoline (4-HQ) was determined by UHPLC-MS on a Zorbax RRHD Eclipse plus C18 column (2.1 mm x 50 mm, […]) (Agilent Technologies, USA), by using a 6470 Series Triple Quadrupole mass spectrometer (Agilent Technologies, USA) as detector with electrospray ionisation – positive ion mode. […]
0.1% formic acid in water; (B) 0.1% formic acid in acetonitrile. IC 50of individual compounds were determined by nonlinear regression usingGraphPad Prism 8.0 (GraphPad Software, USA).

POP (prolyloligopeptidase), sequence (P48147 whole entry): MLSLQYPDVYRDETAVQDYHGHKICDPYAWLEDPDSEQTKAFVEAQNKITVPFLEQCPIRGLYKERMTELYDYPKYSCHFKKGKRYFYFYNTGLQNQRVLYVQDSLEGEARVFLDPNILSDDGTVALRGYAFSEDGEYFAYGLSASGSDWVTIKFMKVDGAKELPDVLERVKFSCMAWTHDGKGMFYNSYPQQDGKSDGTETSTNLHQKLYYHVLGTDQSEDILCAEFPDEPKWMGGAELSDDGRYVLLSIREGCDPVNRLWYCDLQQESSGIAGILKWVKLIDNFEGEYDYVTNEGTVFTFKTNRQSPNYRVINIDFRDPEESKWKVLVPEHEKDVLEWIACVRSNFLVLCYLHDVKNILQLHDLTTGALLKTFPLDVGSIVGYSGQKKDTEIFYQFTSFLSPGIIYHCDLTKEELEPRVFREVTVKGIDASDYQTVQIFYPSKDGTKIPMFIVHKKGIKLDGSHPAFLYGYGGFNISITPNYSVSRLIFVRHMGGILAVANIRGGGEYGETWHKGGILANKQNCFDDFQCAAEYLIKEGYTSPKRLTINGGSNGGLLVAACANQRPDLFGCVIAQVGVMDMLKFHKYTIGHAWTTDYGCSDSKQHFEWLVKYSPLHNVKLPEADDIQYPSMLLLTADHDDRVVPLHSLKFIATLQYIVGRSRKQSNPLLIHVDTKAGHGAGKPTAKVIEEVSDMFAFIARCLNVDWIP

C=CCOc1ccc(CCN(CC=C)Cc2ccc(OC)c(OCc3ccccc3)c2)cc1 [Compound 6, N-allyl-N-(3-benzyloxy-4-methoxybenzyl)-2-(4-allyloxyphenyl)ethan-1-amine]
IC50 [1]: > 79 µM | viability at 24 h, 10 µM (Cytotoxicity, MTT assay): 95.1 ± 2.6% | IC50 (MAO-B): > 10 µM | residual activity of MAO-B (MAO-B; 1 and 10 µM): higher than 68%
